Marks after values point to notes of the source that are not given here.
How the values were obtained:
HepG2 cells [1] = test: AFP secretory volume of HepG2 cells; format: cell-based; conditions: for AFP: HepG2 cells
liver cancer HepG2 cells = test: MTT cell growth and proliferation experiment, HepG2; format: cell-based; parameters: key to Inhibition Rate: (control OD570 − test OD570)/control OD570, as fraction; conditions: for Inhibition Rate: fraction
Method: 1.1 Reagents 12 retinoic acid derivatives with the final concentrations of 1 ug/ml, 5 ug/ml and 10 ug/ml are synthesized by the Pharmaceutical College of Anhui Medical University using DMSO and anhydrous ethanol, separately packaged for storage at −20° C. and kept out of the light when used, and the final concentration of DMSO is less than 0.1%. MTT is purchased from Sigma Corp. The Coulter DNA detection kit is presented by the Central Lab of Anhui Provincial Hospital. AFP and γ-GT are provided by the Clinical Lab of No. 105 Hospital of PLA. Apoptosis-Hoechst staining kit is purchased from Beyotime Company.
1.2 Cell Culture A549, and HpeG2 cells are stored by our lab. Cell growth condition: DMEM (from GIBICO Company) culture solution is added with 10% of calf serum (purchased from the Hangzhou Sijiqing Biological Engineering Material Co., Ltd.) to culture in a cell culture incubator (37° C., 5% CO2) with saturated humidity.
1.3 Cell Growth and Proliferation Experiments MTT process is used. Cells in the logarithmic phase are picked and seeded on a 96-hole culture board with a cell concentration of 5×10^7/L. Each hole of the board is 200 ul. The next day after the adherence, the original solution is discarded, and the culture solution is added. The cells are divided into 1 ug/ml retinoic acid derivative groups, 5 ug/ml retinoic acid derivative groups, 10 ug/ml retinoic acid derivative groups, blank control groups, cell control groups, solvent control groups (1‰ DMSO and anhydrous ethanol) (17 in total) according to the concentrations thereof, incubated for 3d, added with MTT (5 g/L) of 20 ul/hole for incubation at 37° C. for 4 h. The original solution is carefully discarded and dried, and DMSO of 20 ul/hole is added to dissolve crystals, followed by vibrating for 10 min and determining the OD value at 570 nm. Each concentration is corresponding to 5 holes, and each group calculates the average of 3 experiments to calculate the inhibition rate to the cell growth according to the optical density (OD) average of each hole in each group and the following equation: inhibition rate %=(control hole OD570−experimental hole OD570)/control hole OD5700*100%. The process above is repeated for three times. The second experiment takes the maximum concentration (10 […]) for culture respectively for 1, 2, 3 and 7 days and repeat for three times.

HepG2 cells [2] = test: γ-GT specific activity of HepG2 cells; format: cell-based
[3] = patient, dosage 200 mg/day; cited from earlier work
apoptosis = conditions: cited from earlier work
[4] = HepG2, MTT OD 570 nm, 1 ug/ml, 3 d, solvent not given
[5] = HepG2, MTT OD 570 nm, 5 ug/ml, 3 d, solvent not given
[6] = HepG2, MTT OD 570 nm, 10 ug/ml, 3 d, solvent not given
[7] = HepG2, MTT time gradient, 10 ug/ml, 1 d
[8] = HepG2, MTT time gradient, 10 ug/ml, 2 d
[9] = HepG2, MTT time gradient, 10 ug/ml, 3 d
[10] = HepG2, MTT time gradient, 10 ug/ml, 7 d
[11] = HepG2, MTT, 1 ug/ml, 3 d, solvent not given
[12] = HepG2, MTT, 5 ug/ml, 3 d, solvent not given
[13] = HepG2, MTT, 10 ug/ml, 3 d, solvent not given
[14] = HepG2, Table 5 repeat MTT, 10 ug/ml, 3 days, DMSO
[15] = HepG2, MTT time gradient, in DMSO, 1 d, concentration not given
[16] = HepG2, MTT time gradient, in DMSO, 2 d, concentration not given
[17] = HepG2, MTT time gradient, in DMSO, 3 d, concentration not given
[18] = HepG2, MTT time gradient, in DMSO, 7 d, concentration not given
[19] = HepG2, MTT time gradient, in ethanol, 1 d, concentration not given
[20] = HepG2, MTT time gradient, in ethanol, 2 d, concentration not given
[21] = HepG2, MTT time gradient, in ethanol, 3 d, concentration not given
[22] = HepG2, MTT, 3 d, Table 3 control drug in DMSO, concentration not given
[23] = HepG2, MTT, 3 d, Table 3 control drug in ethanol, concentration not given
[24] = HepG2, Table 5 repeat MTT, 3 days, DMSO, concentration not given
[25] = HepG2, Table 5 repeat MTT, 3 days, ethanol, concentration not given
[26] = HepG2, Table 5 repeat MTT, 10 ug/ml, 3 days, ethanol

SMILES: CC1=C(/C=C/C(C)=C/C=C/C(C)=C/C(=O)Nc2cccc(C(F)(F)F)c2)C(C)(C)CCC1 [Example 3a-02, (3-trifluoromethylphenyl)-(all-trans)-3,7-dimethyl-9-(2,6,6-trimethyl-1-cyclohexen-1-yl)-2,4,6,8-nonatetraenoic acid amide]
- AFP (HepG2 cells [1]; DMSO): 15.6 µg/L
- OD Value (x ± s) (liver cancer HepG2 cells; [4]): 1.19 ± 0.50
- OD Value (x ± s) (liver cancer HepG2 cells; [5]): 0.92 ± 0.27
- OD Value (x ± s) (liver cancer HepG2 cells; [6]): 0.94 ± 0.41
- OD Value (x ± s) (liver cancer HepG2 cells; [7]): 1.43 ± 0.07
- Inhibition Rate (liver cancer HepG2 cells; [7]): 0.17
- OD Value (x ± s) (liver cancer HepG2 cells; [8]): 0.81 ± 0.12
- Inhibition Rate (liver cancer HepG2 cells; [8]): 0.52
- OD Value (x ± s) (liver cancer HepG2 cells; [9]): 0.55 ± 0.03
- Inhibition Rate (liver cancer HepG2 cells; [9]): 0.55
- OD Value (x ± s) (liver cancer HepG2 cells; [10]): 0.32 ± 0.12
- Inhibition Rate (liver cancer HepG2 cells; [10]): 0.76
- Inhibition Rate (liver cancer HepG2 cells; [11]): 0.30
- Inhibition Rate (liver cancer HepG2 cells; [12]): 0.45
- Inhibition Rate (liver cancer HepG2 cells; [13]): 0.45
- OD Value (x ± s) (liver cancer HepG2 cells; [14]): 1.331 ± 0.067
- Inhibition Rate (liver cancer HepG2 cells; [14]): 0.385*
- γ-GT (HepG2 cells [2]; DMSO): 35.6 ± 1.0 U/L

SMILES: CC1=C(/C=C/C(C)=C/C=C/C(C)=C/C(=O)Oc2ccccc2C(F)(F)F)C(C)(C)CCC1 [Example 2a-03, (2-trifluoromethylphenyl)-(all-trans)-3,7-dimethyl-9-(2,6,6-trimethyl-1-cyclohexen-1-yl)-2,4,6,8-nonatetraenoate]
- AFP (HepG2 cells [1]; DMSO): 14.7 µg/L
- OD Value (x ± s) (liver cancer HepG2 cells; [4]): 1.32 ± 0.50
- OD Value (x ± s) (liver cancer HepG2 cells; [5]): 1.32 ± 0.56
- OD Value (x ± s) (liver cancer HepG2 cells; [6]): 0.98 ± 0.19
- OD Value (x ± s) (liver cancer HepG2 cells; [7]): 1.61 ± 0.14
- Inhibition Rate (liver cancer HepG2 cells; [7]): 0.07
- OD Value (x ± s) (liver cancer HepG2 cells; [8]): 1.55 ± 0.09
- Inhibition Rate (liver cancer HepG2 cells; [8]): 0.08
- OD Value (x ± s) (liver cancer HepG2 cells; [9]): 1.24 ± 0.09
- Inhibition Rate (liver cancer HepG2 cells; [9]): 0.09
- OD Value (x ± s) (liver cancer HepG2 cells; [10]): 0.79 ± 0.08
- Inhibition Rate (liver cancer HepG2 cells; [10]): 0.36
- Inhibition Rate (liver cancer HepG2 cells; [11]): 0.22
- Inhibition Rate (liver cancer HepG2 cells; [12]): 0.23
- Inhibition Rate (liver cancer HepG2 cells; [13]): 0.42
- OD Value (x ± s) (liver cancer HepG2 cells; [14]): 1.847 ± 0.091
- Inhibition Rate (liver cancer HepG2 cells; [14]): 0.468*
- γ-GT (HepG2 cells [2]; DMSO): 60.6 ± 0.5 U/L

SMILES: CC1=C(/C=C/C(C)=C/C=C/C(C)=C/C(=O)Nc2ccc(O)cc2)C(C)(C)CCC1 [Fenretinide, reference compound]
- plasma concentration [3]: lower than 1 μM
- AFP (HepG2 cells [1]; DMSO): 15.1 µg/L
- AFP (HepG2 cells [1]; ethanol): 14.9 µg/L
- OD Value (x ± s) (liver cancer HepG2 cells; [15]): 1.61 ± 0.16
- Inhibition Rate (liver cancer HepG2 cells; [15]): 0.09
- OD Value (x ± s) (liver cancer HepG2 cells; [16]): 1.37 ± 0.07
- Inhibition Rate (liver cancer HepG2 cells; [16]): 0.19
- OD Value (x ± s) (liver cancer HepG2 cells; [17]): 1.07 ± 0.20
- Inhibition Rate (liver cancer HepG2 cells; [17]): 0.13
- OD Value (x ± s) (liver cancer HepG2 cells; [18]): 1.17 ± 0.06
- Inhibition Rate (liver cancer HepG2 cells; [18]): 0.14
- OD Value (x ± s) (liver cancer HepG2 cells; [19]): 1.67 ± 0.05
- Inhibition Rate (liver cancer HepG2 cells; [19]): 0.05
- OD Value (x ± s) (liver cancer HepG2 cells; [20]): 1.31 ± 0.09
- Inhibition Rate (liver cancer HepG2 cells; [20]): 0.22
- OD Value (x ± s) (liver cancer HepG2 cells; [21]): 1.06 ± 0.09
- Inhibition Rate (liver cancer HepG2 cells; [21]): 0.14
- OD Value (x ± s) (liver cancer HepG2 cells; [22]): 1.27 ± 0.25
- Inhibition Rate (liver cancer HepG2 cells; [22]): 0.25
- OD Value (x ± s) (liver cancer HepG2 cells; [23]): 1.28 ± 0.21
- Inhibition Rate (liver cancer HepG2 cells; [23]): 0.24
- OD Value (x ± s) (liver cancer HepG2 cells; [24]): 1.469 ± 0.078
- Inhibition Rate (liver cancer HepG2 cells; [24]): 0.322*
- OD Value (x ± s) (liver cancer HepG2 cells; [25]): 1.422 ± 0.123
- Inhibition Rate (liver cancer HepG2 cells; [25]): 0.343*
- γ-GT (HepG2 cells [2]; DMSO): 66.6 ± 0.5 U/L
- γ-GT (HepG2 cells [2]; ethanol): 61.0 ± 1.0 U/L
- effective concentration required to generate apoptosis in vivo (apoptosis): 101 µM

SMILES: CC1=C(/C=C/C(C)=C/C=C/C(C)=C/C(=O)Nc2cccc(OC(F)(F)F)c2)C(C)(C)CCC1 [Example 6a-02, (3-trifluoromethoxyphenyl)-(all-trans)-3,7-dimethyl-9-(2,6,6-trimethyl-1-cyclohexen-1-yl)-2,4,6,8-nonatetraenoic acid amide]
- AFP (HepG2 cells [1]; DMSO): 15.6 µg/L
- OD Value (x ± s) (liver cancer HepG2 cells; [4]): 1.38 ± 0.62
- OD Value (x ± s) (liver cancer HepG2 cells; [5]): 1.16 ± 0.38
- OD Value (x ± s) (liver cancer HepG2 cells; [6]): 0.84 ± 0.31
- OD Value (x ± s) (liver cancer HepG2 cells; [7]): 1.60 ± 0.19
- Inhibition Rate (liver cancer HepG2 cells; [7]): 0.07
- OD Value (x ± s) (liver cancer HepG2 cells; [8]): 1.14 ± 0.09
- Inhibition Rate (liver cancer HepG2 cells; [8]): 0.32
- OD Value (x ± s) (liver cancer HepG2 cells; [9]): 0.81 ± 0.12
- Inhibition Rate (liver cancer HepG2 cells; [9]): 0.34
- OD Value (x ± s) (liver cancer HepG2 cells; [10]): 0.49 ± 0.32
- Inhibition Rate (liver cancer HepG2 cells; [10]): 0.63
- Inhibition Rate (liver cancer HepG2 cells; [11]): 0.18
- Inhibition Rate (liver cancer HepG2 cells; [12]): 0.31
- Inhibition Rate (liver cancer HepG2 cells; [13]): 0.50
- OD Value (x ± s) (liver cancer HepG2 cells; [14]): 1.125 ± 0.146
- Inhibition Rate (liver cancer HepG2 cells; [14]): 0.480*
- γ-GT (HepG2 cells [2]; DMSO): 42.3 ± 2.0 U/L

SMILES: CC1=C(/C=C/C(C)=C/C=C/C(C)=C/C(=O)Oc2ccc(N)cc2C(F)(F)F)C(C)(C)CCC1 [Example 4a-02, (4-amino-2-trifluoromethylphenyl)-(all-trans)-3,7-dimethyl-9-(2,6,6-trimethyl-1-cyclohexen-1-yl)-2,4,6,8-nonatetraenoate]
- effects on AFP secretory volume (statistics, in words) (HepG2 cells [1]; HepG2, compared with the control groups, P less than 0.05): meaningful in statistics
- AFP (HepG2 cells [1]; ethanol): 10.4* ug/L
- OD Value (x ± s) (liver cancer HepG2 cells; [4]): 1.50 ± 0.24
- OD Value (x ± s) (liver cancer HepG2 cells; [5]): 1.32 ± 0.50
- OD Value (x ± s) (liver cancer HepG2 cells; [6]): 0.86 ± 0.13
- OD Value (x ± s) (liver cancer HepG2 cells; [7]): 1.53 ± 0.27
- Inhibition Rate (liver cancer HepG2 cells; [7]): 0.11
- OD Value (x ± s) (liver cancer HepG2 cells; [8]): 1.36 ± 0.13
- Inhibition Rate (liver cancer HepG2 cells; [8]): 0.20
- OD Value (x ± s) (liver cancer HepG2 cells; [9]): 0.74 ± 0.08
- Inhibition Rate (liver cancer HepG2 cells; [9]): 0.46
- OD Value (x ± s) (liver cancer HepG2 cells; [10]): 0.70 ± 0.05
- Inhibition Rate (liver cancer HepG2 cells; [10]): 0.48
- Inhibition Rate (liver cancer HepG2 cells; [11]): 0.11
- Inhibition Rate (liver cancer HepG2 cells; [12]): 0.22
- Inhibition Rate (liver cancer HepG2 cells; [13]): 0.49
- OD Value (x ± s) (liver cancer HepG2 cells; [26]): 1.409 ± 0.090
- Inhibition Rate (liver cancer HepG2 cells; [26]): 0.349*
- γ-GT (HepG2 cells [2]; ethanol): 32.6 ± 1.5 U/L
